Results: article PMC9177545, “3-oxo-C12:2-HSL, quorum sensing molecule from human intestinal microbiota, inhibits pro-inflammatory pathways in immune cells via bitter taste receptors” (Scientific Reports, 2022)

Target: T1, TAS2R138 (Mus musculus, UniProt Q7TQA6)
T1 construct: endogenous in cells; host or cells: RAW264.7 murine macrophages (ATCC)
T1 sequence (Q7TQA6 1-331): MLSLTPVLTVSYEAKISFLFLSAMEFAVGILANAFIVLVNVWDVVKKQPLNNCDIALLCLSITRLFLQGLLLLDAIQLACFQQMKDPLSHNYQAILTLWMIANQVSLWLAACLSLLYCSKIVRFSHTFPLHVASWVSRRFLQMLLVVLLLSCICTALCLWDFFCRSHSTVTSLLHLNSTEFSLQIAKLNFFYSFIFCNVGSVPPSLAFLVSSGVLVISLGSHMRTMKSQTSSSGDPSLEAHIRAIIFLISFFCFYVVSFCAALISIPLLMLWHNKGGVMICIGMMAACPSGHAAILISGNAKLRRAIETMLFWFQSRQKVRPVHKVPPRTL
Assay: TAS2R38/TAS2R138 inhibition experiment: TNFα secretion of RAW264.7 cells pre-treated with probenecid
Assay type: cell-based
Conditions: 1 mM probenecid, one hour before LPS and IFNγ, six hours
Method: In RAW264.7 cells, inflammation was triggered with LPS (10 ng/mL, Sigma) and IFNγ (10 U/mL, R&Dsystems) for 2 h or 6 h, depending on the experiments. PBMC were exposed to LPS (10 ng/mL) and AHL for 24 h. For TAS2R38 inhibition experiments, cells were exposed to TAS2R38 allosteric inhibitor probenecid (1 mM, Sigma) for one hour before adding AHLs and the inflammatory cocktail, without changing the media.
At the end of cell treatment, the medium was centrifuged at 300g for 5 min at 4 °C. Supernatant was frozen at − 80 °C until ELISA assays. TNFα and IL-1β ELISA kits were purchased from R&D systems and performed according to the manufacturer’s instructions. Briefly, plates were coated with a capture antibody and incubated overnight. Wells were blocked using 1% bovine serum albumin-PBS solution (Sigma), then exposed to cell supernatants at room temperature for two hours. Wells were washed and incubated with the detection antibody for an additional two hours. After thorough washing, Streptavidin-HRP solution was added for 20 min. Wells were washed, then incubated with TMB (Biolegend) solution for 20 min and the reaction was stopped using 1 M H2SO4. Absorbance was measured by a spectrometer (FLUOstar Omega; BMG Labtech) at 450 nm and the absorbance at 540 nm was subtracted.

effect on TNFα secretion in activated cells cultured in absence of 3-oxo-C12:2-HSL: no effect
Structure (SMILES): CCCN(CCC)S(=O)(=O)c1ccc(C(=O)O)cc1 [probenecid, reference compound]
